Results taken from article PMC11672637, “7-O-Carboxylic Acid-Substituted 3-O-Alkyl Difluoroquercetin; An Aztreonam-Potentiating Agent Against Carbapenemase-Producing Pseudomonas aeruginosa Through Simultaneous Inhibition of Metallo-β-Lactamase and Efflux Pump” (Antibiotics, 2024).
Converted amounts (≈) assume the structure as drawn. Like-named read-outs stand apart in the source and are kept apart here.

Columns and labels:
Assay type in all cases: cell-based, P. aeruginosa
PA-026, blaNDM = test: MIC / checkerboard with ATM; settings: for MIC: Pseudomonas aeruginosa, read-out: MIC of ATM with 5, PA-026
PA-017, blaNDM = test: Time–kill assay; settings: for Log CFU/mL, ATM + 5: 24 h
Method: (§1) Aliquots (50 μL) were taken from the incubation mixture at regular time intervals (t = 0, 3, 6, and 24 h), serially diluted in 0.85% NaCl solution, and plated on BAP. Bacterial colonies were counted, and the data are presented as the means of at least three independent experiments.

PA-002, blaIMP = test: Time–kill assay; settings: for Log CFU/mL, ATM + 5: 24 h
Method: as §1

PA-014, blaGES = test: MIC / checkerboard with ATM; settings: for MIC: Pseudomonas aeruginosa, read-out: MIC of ATM with 5, PA-014
[1] = system: ATM-Susceptible CPPA (n = 11); test: MIC distribution over clinical isolates; settings: Pseudomonas aeruginosa
PA-031, blaNDM = test: MIC / checkerboard with ATM; settings: for MIC: Pseudomonas aeruginosa, read-out: MIC of ATM with 5, PA-031
PA-039, blaNDM = test: MIC / checkerboard with ATM; settings: for MIC: Pseudomonas aeruginosa, read-out: MIC of ATM with 5, PA-039

With `CC(C)(C)CCOc1c(-c2ccc(F)c(F)c2)oc2cc(OCC(=O)O)cc(O)c2c1=O` [Compound 5, 2-((2-(3,4-Difluorophenyl)-3-(3,3-dimethylbutoxy)-5-hydroxy-4-oxo-4H-chromen-7-yl)oxy)acetic Acid] the “Susceptibility to ATM” value (PA-026, blaNDM; PA-026, ATM/5) was “S (S (sensitive, MIC ≤ 8 mg/L))”, the “FD (fold decrease in MIC of ATM with 5)” value (PA-026, blaNDM; PA-026, lowest-FICI combination) was 4 and the MIC (PA-026, blaNDM; 5 at 1 mg/L) was 4 µg/mL. The MIC (PA-026, blaNDM; 5 at 2 mg/L) was 4 µg/mL, the MIC (PA-026, blaNDM; 5 at 4 mg/L) was 2 µg/mL and the MIC (PA-026, blaNDM; 5 at 8 mg/L) was 2 µg/mL. It also gave an MIC (PA-026, blaNDM; 5 at 16 mg/L) of 1 µg/mL, an MIC (PA-026, blaNDM; 5 at 32 mg/L) of 1 µg/mL and an MIC (PA-026, blaNDM; 5 at 64 mg/L) of 1 µg/mL. The “Diff. (ATM + 5, 24 h vs initial inoculum)” value (PA-017, blaNDM; ATM 1/2 MIC + 5 at 8 mg/L) was 1.52 Log CFU/mL, the “Diff. (ATM + 5 vs ATM only)” value (PA-017, blaNDM; ATM 1/2 MIC + 5 at 8 mg/L) was −3.45 Log CFU/mL and the “Synergistic activity, interpretation” value (PA-017, blaNDM; ATM 1/2 MIC + 5 at 8 mg/L) was “Synergy (a ≥ 2 log10 decrease in CFU/mL for the combination of ATM and 5 compared to ATM alone after 24 h of incubation)”. The “Log CFU/mL, ATM + 5” value (PA-017, blaNDM; ATM 1/2 MIC + 5 at 8 mg/L) was 6.52 Log CFU/mL, the “Diff. (ATM + 5, 24 h vs initial inoculum)” value (PA-017, blaNDM; ATM 1/4 MIC + 5 at 8 mg/L) was 4.97 Log CFU/mL and the “Diff. (ATM + 5 vs ATM only)” value (PA-017, blaNDM; ATM 1/4 MIC + 5 at 8 mg/L) was −0.77 Log CFU/mL. For the same compound, the “Log CFU/mL, ATM + 5” value (PA-017, blaNDM; ATM 1/4 MIC + 5 at 8 mg/L) was 9.97 Log CFU/mL, the “Diff. (ATM + 5, 24 h vs initial inoculum)” value (PA-017, blaNDM; ATM 1 MIC + 5 at 8 mg/L) was −4.75 Log CFU/mL and the “Diff. (ATM + 5 vs ATM only)” value (PA-017, blaNDM; ATM 1 MIC + 5 at 8 mg/L) was −6.27 Log CFU/mL. For the same compound, the “Synergistic activity, interpretation” value (PA-017, blaNDM; ATM 1 MIC + 5 at 8 mg/L) was “Synergy (a ≥ 2 log10 decrease in CFU/mL for the combination of ATM and 5 compared to ATM alone after 24 h of incubation)”, the “Log CFU/mL, ATM + 5” value (PA-017, blaNDM; ATM 1 MIC + 5 at 8 mg/L) was 0.25 Log CFU/mL and the “Diff. (ATM + 5, 24 h vs initial inoculum)” value (PA-017, blaNDM; ATM 2 MIC + 5 at 8 mg/L) was −5.00 Log CFU/mL. For the same compound, the “Diff. (ATM + 5 vs ATM only)” value (PA-017, blaNDM; ATM 2 MIC + 5 at 8 mg/L) was −0.12 Log CFU/mL, the “Log CFU/mL, ATM + 5” value (PA-017, blaNDM; ATM 2 MIC + 5 at 8 mg/L) was 0.00 Log CFU/mL and the “Diff. (ATM + 5, 24 h vs initial inoculum)” value (PA-002, blaIMP; ATM 1/2 MIC + 5 at 8 mg/L) was 1.21 Log CFU/mL. The “Diff. (ATM + 5 vs ATM only)” value (PA-002, blaIMP; ATM 1/2 MIC + 5 at 8 mg/L) was −2.36 Log CFU/mL, the “Synergistic activity, interpretation” value (PA-002, blaIMP; ATM 1/2 MIC + 5 at 8 mg/L) was “Synergy (a ≥ 2 log10 decrease in CFU/mL for the combination of ATM and 5 compared to ATM alone after 24 h of incubation)” and the “Log CFU/mL, ATM + 5” value (PA-002, blaIMP; ATM 1/2 MIC + 5 at 8 mg/L) was 6.66 Log CFU/mL. For the same compound, the “Diff. (ATM + 5, 24 h vs initial inoculum)” value (PA-002, blaIMP; ATM 1/4 MIC + 5 at 8 mg/L) was 2.26 Log CFU/mL, the “Diff. (ATM + 5 vs ATM only)” value (PA-002, blaIMP; ATM 1/4 MIC + 5 at 8 mg/L) was −1.77 Log CFU/mL and the “Log CFU/mL, ATM + 5” value (PA-002, blaIMP; ATM 1/4 MIC + 5 at 8 mg/L) was 7.71 Log CFU/mL. The “Diff. (ATM + 5, 24 h vs initial inoculum)” value (PA-002, blaIMP; ATM 1 MIC + 5 at 8 mg/L) was −2.42 Log CFU/mL, the “Diff. (ATM + 5 vs ATM only)” value (PA-002, blaIMP; ATM 1 MIC + 5 at 8 mg/L) was −5.12 Log CFU/mL and the “Synergistic activity, interpretation” value (PA-002, blaIMP; ATM 1 MIC + 5 at 8 mg/L) was “Synergy (a ≥ 2 log10 decrease in CFU/mL for the combination of ATM and 5 compared to ATM alone after 24 h of incubation)”. For the same compound, the “Log CFU/mL, ATM + 5” value (PA-002, blaIMP; ATM 1 MIC + 5 at 8 mg/L) was 3.03 Log CFU/mL, the “Diff. (ATM + 5, 24 h vs initial inoculum)” value (PA-002, blaIMP; ATM 2 MIC + 5 at 8 mg/L) was −5.45 Log CFU/mL and the “Diff. (ATM + 5 vs ATM only)” value (PA-002, blaIMP; ATM 2 MIC + 5 at 8 mg/L) was −5.5 Log CFU/mL. The “Synergistic activity, interpretation” value (PA-002, blaIMP; ATM 2 MIC + 5 at 8 mg/L) was “Synergy (a ≥ 2 log10 decrease in CFU/mL for the combination of ATM and 5 compared to ATM alone after 24 h of incubation)”, the “Log CFU/mL, ATM + 5” value (PA-002, blaIMP; ATM 2 MIC + 5 at 8 mg/L) was 0.00 Log CFU/mL and the “Activity (FICI class)” value (PA-014, blaGES; PA-014) was “S (S (Synergy, FICI ≤ 0.5))”. For the same compound, the “Concentrations of ATM and 5 at lowest FICI (ATM/5)” value (“Concentrations” for short) (PA-014, blaGES; PA-014) was 4/16, the “Lowest FICI (ATM/5)” value (PA-014, blaGES; PA-014) was 0.28 and the “Minimum concentration of 5 to make sensitive to ATM” value (PA-014, blaGES; PA-014) was 4 mg/L. The “Susceptibility to ATM” value (PA-014, blaGES; PA-014, ATM/5) was “S (S (sensitive, MIC ≤ 8 mg/L))”, the “FD (fold decrease in MIC of ATM with 5)” value (PA-014, blaGES; PA-014, lowest-FICI combination) was 4 and the MIC (PA-014, blaGES; 5 at 1 mg/L) was 16 µg/mL. For the same compound, the MIC (PA-014, blaGES; 5 at 2 mg/L) was 16 µg/mL, the MIC (PA-014, blaGES; 5 at 4 mg/L) was 8 µg/mL and the MIC (PA-014, blaGES; 5 at 8 mg/L) was 8 µg/mL. For the same compound, the MIC (PA-014, blaGES; 5 at 16 mg/L) was 4 µg/mL, the MIC (PA-014, blaGES; 5 at 32 mg/L) was 4 µg/mL and the MIC (PA-014, blaGES; 5 at 64 mg/L) was 4 µg/mL. The MIC50 ([1]; read-out: MIC50 of ATM, 5 at 1 mg/L) was 4 µg/mL (≈ 8.92 µM), the MIC50 ([1]; read-out: MIC50 of ATM, 5 at 2 mg/L) was 2 µg/mL (≈ 4.46 µM) and the MIC50 ([1]; read-out: MIC50 of ATM, 5 at 4 mg/L) was 2 µg/mL (≈ 4.46 µM). For the same compound, the MIC50 ([1]; read-out: MIC50 of ATM, 5 at 8 mg/L) was 2 µg/mL (≈ 4.46 µM), the MIC50 ([1]; read-out: MIC50 of ATM, 5 at 16 mg/L) was 1 µg/mL (≈ 2.23 µM) and the MIC50 ([1]; read-out: MIC50 of ATM, 5 at 32 mg/L) was 1 µg/mL (≈ 2.23 µM). It also gave an MIC50 ([1]; read-out: MIC50 of ATM, 5 at 64 mg/L) of 1 µg/mL (≈ 2.23 µM), an MIC90 ([1]; read-out: MIC90 of ATM, 5 at 1 mg/L) of 8 µg/mL (≈ 17.8 µM) and an MIC90 ([1]; read-out: MIC90 of ATM, 5 at 2 mg/L) of 4 µg/mL (≈ 8.92 µM). It also gave an MIC90 ([1]; read-out: MIC90 of ATM, 5 at 4 mg/L) of 4 µg/mL (≈ 8.92 µM), an MIC90 ([1]; read-out: MIC90 of ATM, 5 at 8 mg/L) of 2 µg/mL (≈ 4.46 µM) and an MIC90 ([1]; read-out: MIC90 of ATM, 5 at 16 mg/L) of 2 µg/mL (≈ 4.46 µM). For the same compound, the MIC90 ([1]; read-out: MIC90 of ATM, 5 at 32 mg/L) was 2 µg/mL (≈ 4.46 µM), the MIC90 ([1]; read-out: MIC90 of ATM, 5 at 64 mg/L) was 2 µg/mL (≈ 4.46 µM) and the “Activity (FICI class)” value (PA-031, blaNDM; PA-031) was “S (S (Synergy, FICI ≤ 0.5))”. The “Concentrations” value (PA-031, blaNDM; PA-031) was 1/8, the “Lowest FICI (ATM/5)” value (PA-031, blaNDM; PA-031) was 0.27 and the “Susceptibility to ATM” value (PA-031, blaNDM; PA-031, ATM/5) was “S (S (sensitive, MIC ≤ 8 mg/L))”. For the same compound, the “FD (fold decrease in MIC of ATM with 5)” value (PA-031, blaNDM; PA-031, lowest-FICI combination) was 4, the MIC (PA-031, blaNDM; 5 at 1 mg/L) was 2 µg/mL and the MIC (PA-031, blaNDM; 5 at 2 mg/L) was 2 µg/mL. It also gave an MIC (PA-031, blaNDM; 5 at 4 mg/L) of 2 µg/mL, an MIC (PA-031, blaNDM; 5 at 8 mg/L) of 1 µg/mL and an MIC (PA-031, blaNDM; 5 at 16 mg/L) of 1 µg/mL. For the same compound, the MIC (PA-031, blaNDM; 5 at 32 mg/L) was 1 µg/mL, the MIC (PA-031, blaNDM; 5 at 64 mg/L) was 1 µg/mL and the “Activity (FICI class)” value (PA-039, blaNDM; PA-039) was “S (S (Synergy, FICI ≤ 0.5))”. The “Concentrations” value (PA-039, blaNDM; PA-039) was 4/8, the “Lowest FICI (ATM/5)” value (PA-039, blaNDM; PA-039) was 0.27 and the “Minimum concentration of 5 to make sensitive to ATM” value (PA-039, blaNDM; PA-039) was 4 mg/L. For the same compound, the “Susceptibility to ATM” value (PA-039, blaNDM; PA-039, ATM/5) was “S (S (sensitive, MIC ≤ 8 mg/L))”, the “FD (fold decrease in MIC of ATM with 5)” value (PA-039, blaNDM; PA-039, lowest-FICI combination) was 4 and the MIC (PA-039, blaNDM; 5 at 1 mg/L) was 16 µg/mL. For the same compound, the MIC (PA-039, blaNDM; 5 at 2 mg/L) was 16 µg/mL, the MIC (PA-039, blaNDM; 5 at 4 mg/L) was 8 µg/mL and the MIC (PA-039, blaNDM; 5 at 8 mg/L) was 4 µg/mL. The MIC (PA-039, blaNDM; 5 at 16 mg/L) was 4 µg/mL, the MIC (PA-039, blaNDM; 5 at 32 mg/L) was 4 µg/mL and the MIC (PA-039, blaNDM; 5 at 64 mg/L) was 4 µg/mL.
